Laboratory results taken from publication PMC6946680, “Modulation of brain cation-Cl^− cotransport via the SPAK kinase inhibitor ZT-1a” (Nature Communications, 2020).
“And” between values parts separate entries of the source, which are not always exact repeats. Equal entries are not always repeated. “Also recorded” adds a separate entry of the source.

Assays:
[1] = ZT-1a content in plasma and brain of sham and tMCAO mice (LC-MS/MS); type: in vivo, mouse; settings: for Brain tissue ZT-1a concentration: Fig 6f
[2] = tested on: mouse model of ischemic stroke (tMCAO); assay: Corner test after tMCAO; type: in vivo; settings: for Corner test (Unilateral turns): Fig 7c, individual mice #1-#7
[3] = tested on: mouse model of ischemic stroke (tMCAO); assay: Adhesive-removal test after tMCAO; type: in vivo; settings: for Adhesive removal time: Fig 7c, individual mice #1-#7
pGSK-3α/β = assay: Immunoblot of phospho-GSK-3α/β in ischemic mouse brain; type: in vivo; settings: for pGSK-3αβ/GAPDH (fold veh-CL): Cytosol; for pGSK-3αβ/GAPDH (fold veh-CL) / pGSK-3αβ/Na K pump (fold veh-CL): Fig S4d; for pGSK-3αβ/Na K pump (fold veh-CL): Membrane
Excerpt: Cytosol and crude membrane protein
Expressions of Na+-K+ ATPase
respectively. d Densitometric analyses of immunoblots.

[4] = target: panel of 140 recombinant kinases; type: biochemical
Experimental: Supplementary Table 2. ZT-1a kinase profiling data6.
ZT-1a was tested at 10 and 1 µM against a panel of 140 recombinant kinases in an enzymatic
activity-based assay performed by the International Centre for Kinase Profiling in the MRC
Protein Phosphorylation and Ubiquitylation Unit. Values represent % residual kinase activity

[5] = design: method as in Reviewer #3; settings: as stated by Reviewer #3 in the peer-review file; ref Reviewer #3; cited from earlier work
tSPAK tOSR1 = assay: Immunoblot of total SPAK/OSR1 in ischemic mouse brain membrane and cytosol fractions; type: in vivo; settings: Cytosol; IL; single samples
[6] = tested on: GSK-3β Ser9 phosphorylation; assay: Immunoblot of GSK-3β Ser9 phosphorylation in HEK-293 cells; settings: for GSK3b pSer9 / Actin: Fig S4b

For Cc1cc(C(C#N)c2ccc(Cl)cc2)c(Cl)cc1NC(=O)c1cc(Cl)ccc1O (stereo not shown) [ZT-1a, 5-chloro-N-(5-chloro-4-((4-chlorophenyl)(cyano)methyl)-2-methylphenyl)-2-hydroxybenzamide], the “plasma ZT-1a concentration” value ([1]; Fig 6e, tMCAO mice, individual animals) was 1494.00 ng/mL and 655.00 ng/mL and 82.00 ng/mL and 678.79 ng/mL and 587.05 ng/mL and 302.56 ng/mL and 827.38 ng/mL and 531.10 ng/mL and 662.00 ng/mL, the “Brain tissue ZT-1a concentration” value ([1]; sham, CL hemisphere, individual animals) was 221.00 ng/gm tissue and 107.00 ng/gm tissue and 97.00 ng/gm tissue and 50.00 ng/gm tissue and 133.00 ng/gm tissue and 120.00 ng/gm tissue and 67.00 ng/gm tissue and 61.00 ng/gm tissue and 77.00 ng/gm tissue and 131.00 ng/gm tissue and the “Brain tissue ZT-1a concentration” value ([1]; sham, IL hemisphere, individual animals) was 174.00 ng/gm tissue and 130.00 ng/gm tissue and 100.00 ng/gm tissue and 155.00 ng/gm tissue and 76.00 ng/gm tissue and 115.00 ng/gm tissue and 89.00 ng/gm tissue and 78.00 ng/gm tissue and 59.00 ng/gm tissue and 139.00 ng/gm tissue. For the same compound, the “Brain tissue ZT-1a concentration” value ([1]; tMCAO, CL hemisphere, individual animals) was 161.00 ng/gm tissue and 118.00 ng/gm tissue and 139.00 ng/gm tissue and 285.00 ng/gm tissue and 269.00 ng/gm tissue and 132.00 ng/gm tissue and 326.00 ng/gm tissue and 170.00 ng/gm tissue and 163.00 ng/gm tissue and 133.00 ng/gm tissue and 245.00 ng/gm tissue, the “Brain tissue ZT-1a concentration” value ([1]; tMCAO, IL hemisphere, individual animals) was 217.00 ng/gm tissue and 131.00 ng/gm tissue and 171.00 ng/gm tissue and 369.00 ng/gm tissue and 215.00 ng/gm tissue and 238.00 ng/gm tissue and 154.00 ng/gm tissue and 150.00 ng/gm tissue and 199.00 ng/gm tissue and the “penetration across the healthy BBB” value ([1]; normal naive mice) was “minimal”. The “Corner test (Unilateral turns)” value ([2]; Day 1) was 9 Unilateral turns (2×) and 10 Unilateral turns and 6 Unilateral turns (4×), the “Corner test (Unilateral turns)” value ([2]; Day 3) was 6 Unilateral turns (2×) and 10 Unilateral turns and 7 Unilateral turns (3×) and 5 Unilateral turns and the “Corner test (Unilateral turns)” value ([2]; Day 5) was 6 Unilateral turns (5×) and 5 Unilateral turns (2×). The “Corner test (Unilateral turns)” value ([2]; Day 7) was 6 Unilateral turns (4×) and 5 Unilateral turns (3×), the “Corner test (Unilateral turns)” value ([2]; Day -1 (baseline)) was 5 Unilateral turns (5×) and 6 Unilateral turns (2×) and the “corner test, turn preference/asymmetries” value ([2]; ZT-1a 5.0 mg/kg, days 1–7 post stroke) was “absence of asymmetries by day 7 post stroke”. The “Adhesive removal time” value ([3]; Day 1) was 15 seconds and 27 seconds and 70 seconds and 120 seconds and 28 seconds (2×) and 85 seconds, the “Adhesive removal time” value ([3]; Day 3) was 26 s and 16 s and 65 s and 29 s and 9 s and 41 s and 62 s and the “Adhesive removal time” value ([3]; Day 5) was 36 s and 27 s and 56 s and 35 s and 15 s and 28 s and 24 s. The “Adhesive removal time” value ([3]; Day 7) was 8 seconds (2×) and 14 seconds and 57 seconds and 19 seconds and 16 seconds and 28 seconds, the “Adhesive removal time” value ([3]; Day -1 (baseline)) was 25 seconds and 8 seconds and 7 seconds (2×) and 11 seconds and 13 seconds and 22 seconds and the “adhesive contact and removal tests” value ([3]; ZT-1a 5.0 mg/kg, vs vehicle-control mice) was “significantly improved motor function”. The “pGSK-3αβ/GAPDH (fold veh-CL)” value (pGSK-3α/β; CL) was 1.03 fold veh-CL and 0.85 fold veh-CL and 1.10 fold veh-CL, the “pGSK-3αβ/GAPDH (fold veh-CL)” value (pGSK-3α/β; IL) was 1.40 fold veh-CL and 1.29 fold veh-CL and 1.07 fold veh-CL and the “pGSK-3αβ/Na K pump (fold veh-CL)” value (pGSK-3α/β; CL) was 1.04 fold veh-CL and 0.96 fold veh-CL and 1.12 fold veh-CL. The “pGSK-3αβ/Na K pump (fold veh-CL)” value (pGSK-3α/β; IL) was 0.94 fold veh-CL and 0.88 fold veh-CL and 0.90 fold veh-CL, the “GSK-3β (p-GSK-3alpha/beta) phosphorylation in ischemic brain” value (pGSK-3α/β; ZT-1a-treated ischemic mouse brain, 5.0 mg/kg i.p., 24 h post reperfusion, 5 mg/kg) was “not inhibited; also recorded: no marked inhibition” and the “kinases of the 140 tested with >50% inhibition” value ([4]; 1 µM ZT-1a) was “only a single kinase”. For the same compound, the “share of the 140 kinases not inhibited by >70%” value ([4]; 1 µM ZT-1a vs DMSO control) was 98%, the logP [5] was > 6 and the “tSPAK tOSR1/GAPDH (fold veh-CL)” value (tSPAK tOSR1) was 1.10 fold veh-CL and 1.64 fold veh-CL and 1.23 fold veh-CL and 1.65 fold veh-CL and 0.87 fold veh-CL. The “GSK-3β Ser9 phosphorylation” value ([6]; 3 µM ZT-1a, HEK-293 cells) was “not inhibited”, the “GSK3b pSer9 / Actin” value ([6]; ZT-1a 0.3 uM) was 0.56 and 0.601 and 0.586 and 0.538 and the “GSK3b pSer9 / Actin” value ([6]; ZT-1a 1 uM) was 0.58 and 0.576 and 0.603 and 0.529. For the same compound, the “GSK3b pSer9 / Actin” value ([6]; ZT-1a 3 uM) was 0.53 and 0.5901 and 0.613 and 0.56.
